Experimental data reported in US20230203060A1 (GENFLEET THERAPEUTICS (SHANGHAI) INC., priority 2020, published 2023).

Key:
[1] = tested on: KRAS G12C mutant NCI-H358 cells; experiment: Cell proliferation inhibition experiment, 3D spheroid, CellTiter-Glo, NCI-H358; assay type: cell-based, human; details: Homo sapiens, NCI-H358, 120 h, NCI-H358 (KRAS G12C mutant) 3D spheroid, 5 days with compound, CellTiter-Glo; read-out: H358 IC50
How it was run: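 CellTiter-Glo luminescence after 5 days' compound treatment (3.16-fold series, 0.1% DMSO) of overnight-formed spheroids in 2% FBS medium: H358 seeded at 800 cells/well in RPMI-1640, A549 at 400 cells/well in F-12K. IC50 derived by four-parameter fit of inhibition normalized to DMSO control and blank.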

[2] = tested on: KRAS G12C mutant MIA PaCa-2 cells; experiment: Cell proliferation inhibition experiment, 3D spheroid, CellTiter-Glo, MIA PaCa-2; assay type: cell-based, human; details: Homo sapiens, MIA PaCa-2, 120 h, 3D cell model in 384-well spheroid plate, 5 days, CellTiter-Glo; read-out: MIA-PaCa2 IC50
How it was run: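 Luminescent ATP read-out (CellTiter-Glo) after 5-day compound treatment of spheroids formed overnight from 200 MIA PaCa-2 cells/well; compounds in 3.16-fold series, 0.1% DMSO final. IC50 derived by four-parameter fit of percent inhibition, normalized to DMSO control and medium blank.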

Structure (SMILES)	IC50 [1]	IC50 [2]
C=CC(=O)N1CCN2C(=O)c3c(N4C[C@@H](CO)CC4(C)C)nc(-c4c(O)cccc4F)c(Cl)c3OC[C@H]2C1 (single isomer, unassigned) [Z240-1]	2.5 nM	3.7 nM
C=CC(=O)N1CCN2C(=O)c3c(N4C[C@@H](OC)CC4(C)C)nc(-c4c(O)cccc4F)c(F)c3OC[C@H]2C1 (single isomer, unassigned) [Z256a-1]	3.4 nM	11.6 nM
C=CC(=O)N1CCN2C(=O)c3c(N4CC(C)(C)OC[C@@H]4C)nc(-c4c(O)cccc4F)c(Cl)c3OC[C@H]2C1 [Z276-1, (6aR)-8-acryloyl-4-chloro-3-(2-fluoro-6-hydroxyphenyl)-1-((S)-2,2,5-trimethylmorpholino)-6,6a,7,8,9,10-hexahydro-12H-pyrazino[2,1-c]pyrido[3,4-f][1,4]oxazepin-12-one]	7.6 nM	14.9 nM
C=CC(=O)N1CCN2C(=O)c3c(N4C[C@@H](O)CC4(C)C)nc(-c4c(O)cccc4F)c(F)c3OC[C@H]2C1 (single isomer, unassigned) [Z256-1]	2.2 nM	5 nM
C=CC(=O)N1CCN2C(=O)c3c(N4CC(N(C)CCOC)CC4(C)C)nc(-c4c(O)cccc4F)c(Cl)c3OCC2C1 (single isomer, unassigned) [Z296-1]	0.4 nM	1.1 nM

More lines, now with the values ahead:

IC50 [1]	IC50 [2]	Structure (SMILES)
9.5 nM	16 nM	C=CC(=O)N1CCN2C(=O)c3c(N4CCN(C)C[C@@H]4C)nc(-c4c(F)ccc(Cl)c4O)c(Cl)c3OC[C@H]2C1 [Z342, (6aR)-8-acryloyl-4-chloro-3-(3-chloro-6-fluoro-2-hydroxyphenyl)-1-((S)-2,4-dimethylpiperazin-1-yl)-6,6a,7,8,9,10-hexahydro-12H-pyrazino[2,1-c]pyrido[3,4-f][1,4]oxazepin-12-one]
5 nM	9.6 nM	C=CC(=O)N1CCN2C(=O)c3c(N4CCN(C(C)=O)C(C)(C)C4)nc(-c4c(O)cccc4F)c(Cl)c3OC[C@H]2C1 [Z315, (6aR)-1-(4-acetyl-3,3-dimethylpiperazin-1-yl)-8-acryloyl-4-chloro-3-(2-fluoro-6-hydroxyphenyl)-6,6a,7,8,9,10-hexahydro-12H-pyrazino[2,1-c]pyrido[3,4-f][1,4]oxazepin-12-one]
1.6 nM	2.6 nM	C=CC(=O)N1CCN2C(=O)c3c(N4CCN(C(C)=O)C[C@@H]4C)nc(-c4c(O)cccc4F)c(Cl)c3OC[C@H]2C1 [Z313-1]
5.2 nM	11 nM	C=CC(=O)N1CCN2C(=O)c3c(N4C[C@@H](O)CC4(C)C)nc(-c4c(O)ccc(Cl)c4F)c(F)c3OC[C@H]2C1 (single isomer, unassigned) [Z340-1]
10.4 nM	18 nM	C=CC(=O)N1CCN2C(=O)c3c(N4CCN(C)C[C@@H]4C)nc(-c4c(O)ccc(Cl)c4F)c(Cl)c3OC[C@H]2C1 [Z343, (6aR)-8-acryloyl-4-chloro-3-(3-chloro-2-fluoro-6-hydroxyphenyl)-1-((S)-2,4-dimethylpiperazin-1-yl)-6,6a,7,8,9,10-hexahydro-12H-pyrazino[2,1-c]pyrido[3,4-f][1,4]oxazepin-12-one]
